Consider two compounds from patent US12489120B2, “Redox flow battery” (ELECTROCHEM, S.L., priority 2019, dated 2025).

Read-outs that look alike come from different tables or passages of the source. Bounds are passed on as bounds.

Data set [1] in a line: Cyclic voltammetry of Fe-EDDHA complexes in unbuffered 0.1 M NaClO4.
Experimental: In order to minimize undesired ligand exchange reactions and solely observe the effect of pH on the redox properties, 0.1 M NaClO4 was chosen as electrolyte for the first set of experiments.
(§1) A Pt rod served as counter electrode, potentials refer to a (Ag/AgCl, 1 M NaCl) reference electrode. For each CV experiment at the mercury electrode, nine single measurements were recorded and averaged in order to minimize errors originating from drop size fluctuations. Copper electrodes were precleaned with 6 M HNO3 before use and equilibrated in electrolyte solution by running repetitive cycles. The planar glassy carbon electrode (Metrohm, 5 mm diameter) was polished on a polishing micro cloth (Buehler) with 0.05 μM alumina (Buehler) to a mirror like finish between the measurement series.
The conditions of data set [2]: literature (Yunta et al. 2003); in M-1·cm-1 (unit assumed); cited from earlier work.
Data set [3] can be described thus: Diffusion coefficients of ferric complexes from voltammetry. To be noted: pH 9, borate buffer, this work. The data set is classed as physicochemical. Here is the method: The experiments also permit calculation of the diffusion coefficients (five solutions in the concentration range between 0.3 and 0.8 mM) (Table 3). Literature values for the Fe^3+ diffusion coefficient range from 3.3-6.5×10^−6 cm^2/s in acidic media to 8.6×10^−6 cm^2/s complexed as K3Fe(CN)6 in strongly basic media.

Data set [4] is described as follows: Molar absorptivity at 480 nm in borate buffer pH 9. The data set is classed as physicochemical. To be noted: borate buffer pH 9, five repetitions; in M-1·cm-1 (unit assumed). Here is the method:
The molar absorptivity was determined in borate buffer solutions at pH 9 (five repetitions). To define the exact complex concentration an understoichiometric amount of ferric iron was used and the excess of free ligand was tolerated, as the ligand is not electroactive.

Data set [5] in a line: Cyclic voltammetry in borate buffer at Hg/Cu/GC electrodes. Particulars: for E1/2 / ipa/ipc / jpc (peak current density) / ΔEp: 0.5 mM, 50 mM borate buffer pH 9, 0.1M NaClO4.
Experimental: as §1
To avoid disturbing influences of local changes in pH within the diffusion layer of the electrodes, cyclic voltammetry with use of buffered solutions was performed.
A 100 mM NaClO4 background supporting electrolyte was used to maintain diffusion limited conditions and high solution conductivity. 50 mM boric acid was added to the NaClO4 supporting electrolyte and adjusted with NaOH to the desired pH value.
For data set [6] the following is noted: cited from earlier work.
Setting [7] is: 0.5 mM, unbuffered 0.1M NaClO4, pH 9, Hg electrode.
[8] abbreviates: 0.5 mM, unbuffered 0.1M NaClO4, pH 9, Hg electrode, vs Ag/AgCl 1 M NaCl.

In data set [1] (setting [7]), `O=C([O-])C(NCCNC(C(=O)[O-])c1ccccc1[O-])c1ccccc1[O-].[Fe+3]` (stereo not shown) [Fe-mesoEDDHA] displayed an ipa of 255 nA, an ipa/ipc of 0.93, an ipc of −275 nA and a ΔEP of 72 mV. In data set [1] (setting [8]), this compound yielded an E1/2 of −621 mV, an Epa of −585 mV and an Epc of −657 mV. In addition, the “pH range in which the voltammograms were independent on pH” value in data set [1] (unbuffered 0.1 M NaClO4) is reported as 6-9. Further, the “pH above which the complex hydrolyses” value in data set [1] (without buffer) is recorded as more than 9. The “Molar absorptivity (ε480 nm), lit.” value in data set [2] is reported as 4574 ± 53. The “Diffusion coefficient Do” value in data set [3] was 5.78 10^−6 cm^2/s. Besides, the “Molar absorptivity (ε480 nm), this work” value in data set [4] is listed as 4546 ± 120. For the same compound, in data set [5] (Cu electrode), the E1/2 was −619 mV, the ipa/ipc worked out at 1.06, the “jpc (peak current density)” value worked out at 520 nA/mm^2 and the ΔEp is 132 mV. Also, in data set [5] (GC electrode), the E1/2 is recorded as −616 mV, the ipa/ipc is 0.94 1, the “jpc (peak current density)” value came out at 817 nA/mm^2 and the ΔEp was 67 mV. Further, in data set [5] (Hg electrode), the E1/2 is recorded as −615 mV, the ipa/ipc is 0.93 1, the “jpc (peak current density)” value is recorded as 1167 nA/mm^2 and the ΔEp was 64 mV. For the same compound, in data set [5] (borate buffered solution, below pH 8 (racemic) / below pH 9 (meso)), the “slope of E1/2 vs pH” value was −38 mV/pH. In data set [5] (pH 9, vs Ag/AgCl 1 M NaCl reference electrode), the redox potential is on record as −615 mV.

Regarding `[Fe+3]` [Fe^3+], in data set [6] (acidic media), the “Diffusion coefficient, literature values” is 3.3-6.5 ×10^−6 cm^2/s. In addition, the “Diffusion coefficient Do” value in data set [6] (pH 0-1, source a (literature)) is reported as 3.3-6.5 10^−6 cm^2/s.
